We go through nine compounds from patent publication US12286435B2, “Compound having benzo seven-membered ring structure, preparation method therefor, and use thereof” (BIONNA (BEIJING) MEDICAL TECHNOLOGY CO., LTD., priority 2019, dated 2025).

In general, Ki refers to a measure of affinity in units of concentration, obtained from inhibition or displacement. As usually defined, the IC50 is the midpoint of a concentration-inhibition curve. Read a low IC50 as higher potency.

The target of test [1] is BRD4 BD2 protein (Homo sapiens (Human), UniProt O60885). The test is described as follows: Fluorescence polarization binding affinity (Ki) with BRD4 BD2 protein. The conditions noted are these: fluorescence polarization; Ki calculated from IC50.
In test [2] the test system is multiple myeloma MM.1S cell line. Put plainly: Cell viability (CCK-8), multiple myeloma MM.1S. In kind it is cell-based. The conditions noted are these: Homo sapiens, MM1.S, 96 h, MM.1S cells, 4 days, CCK-8, 50% inhibition of cell growth. A digest of the protocol: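 Cells (about 3000-5000 per well) exposed to 3-fold serial dilutions of compound for 4 days at 37° C, 5% CO2. CCK-8 added 2-4 h, absorbance at 450 nm, viability normalised to untreated cells after medium-only blank subtraction; IC50 is concentration giving 50% growth inhibition.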

Test [3] has as its target BRD4 BD1 protein (Homo sapiens (Human), UniProt O60885). Put plainly: Fluorescence polarization binding affinity (Ki) with BRD4 BD1 protein. The conditions noted are these: fluorescence polarization; Ki calculated from IC50.
Test [4] relates to leukemia MV4-11 cell line. The test is described as follows: Cell viability (CCK-8), leukemia MV4-11. In kind it is cell-based. To be noted: Homo sapiens, 96 h; MV4-11 cells, 4 days, CCK-8, 50% inhibition of cell growth. As to the method: 3. Determination of cell viability of the compound
The sample to be tested was dissolved with 100% dimethyl sulfoxide to prepare a 20 mM stock solution of the compound, which was diluted with 100% dimethyl sulfoxide to the highest compound concentration required for the experiment (2.5 mM).
First, 145 uL of a complete cell culture medium was added to wells B1-G1 of a 96-well flat-bottomed tansparent cell culture plate, and 100 uL of the complete medium was added to wells B2-G12, respectively. Then, 5 uL of the 2.5 mM solution of the compound was added to wells B1-D1 and E1-G1 respectively, and then diluted gradiently by 3-folds to B12-D12 and E12-G12 in sequence. Finally, 50 uL of the solution of the cells to be tested was added to each well, with about 3000-5000 cells per well, and a total volume of 150 uL per well.
In the experiment, in addition to the tested compound, two other control groups were set up: 1) a control group adding the cells and the complete medium, but without adding the compound; 2) a control group adding the complete medium only, without adding the cells and the compound. The 96-well plate was placed in a 37° C. cell culture incubator containing 5% carbon dioxide for 4 days, added with 15 uL of a CCK-8 reagent per well, and then incubated at 37° C. for 2-4 hours. The 96-well plate was read on a TECAN microplate reader, and the absorbance value at 450 nm wavelength was taken.
The effect of different concentrations of the compound on cell viability was calculated by the following equation: [absorption value of the experimental group−absorption value of pure cell culture medium without the cells or the compound]/[absorption value of the control group with the tumor cells but no testing compound−absorption value of pure cell culture medium without the cell or the compound]×100%.
The above data were precessed by software, and the IC50 value was the concentration of the compound corresponding to the 50% inhibition rate of cell growth.
Based on the above test method of the compound on cell viability, a variety of […] cancer cell lines were tested, using multiple myeloma MM.1S, breast cancer MDA-MB-231 and leukemia MV4-11 cell lines as exemples. Using this test method, the IC50 values of partial compounds in the examples of the present invention measured in multiple myeloma MM.1S, breast cancer MDA-MB-231 cell lines and leukemia MV4-11 cell lines were shown in Table 2.

Where “and” joins values, the source holds several entries; their conditions need not be identical. Equal values may be shown once. Where a name gives a salt, the structure may show the parent alone.

For `CCN1CC=C(c2ccc3c(c2)C(Nc2cccc(Cl)c2)CCn2nnc(C)c2-3)CC1` (stereo not shown) [BH36, N-(3-chlorophenyl)-9-(1-ethyl-1,2,3,6-tetrahydropyridin-4-yl)-1-methyl-6,7-dihydro-5H-benzo[c][1,2,3]triazolo[1,5-a]azepin-7-amine 2,2,2-trifluoroacetate], the Ki in test [1] was 0.0138 µM and 0.016 µM; in test [3], 0.717 µM and 1.4 µM. Further, the results for the IC50 in test [2] and in test [4] were 0.146 µM and 0.0575 µM, respectively.
Regarding `Cc1nnn2c1-c1ccc(C3=CCN(C4CCCCC4)CC3)cc1C(Nc1cccc(Cl)c1)CC2` (stereo not shown) [BH104, N-(3-chlorophenyl)-9-(1-cyclohexyl-1,2,3,6-tetrahydropyridin-4-yl)-1-methyl-6,7-dihydro-5H-benzo[c][1,2,3]triazolo[1,5-a]azepin-7-amine 2,2,2-trifluoroacetate], the Ki in test [1] is 0.0134 µM; in test [3], 0.71 µM. The IC50 came to 0.119 µM in test [2] and 0.00132 µM in test [4].
Regarding `Cc1nnn2c1-c1ccc(C3=CCN(C4CCC4)CC3)cc1C(Nc1cccc(Cl)c1)CC2` (stereo not shown) [BH159, N-(3-chlorophenyl)-9-(1-cyclobutyl-1,2,3,6-tetrahydropyridin-4-yl)-1-methyl-6,7-dihydro-5H-benzo[c][1,2,3]triazolo[1,5-a]azepin-7-amine 2,2,2-trifluoroacetate], the Ki is 0.00931 µM in test [1] and 0.879 µM in test [3]. Further, the results for the IC50 in test [2] and in test [4] were 0.285 µM and 0.0752 µM, respectively.
Turning to `Cc1nnn2c1-c1ccc(C3=CCN(C4CCCCC4)CC3)cc1C(Nc1cc(Cl)ccc1F)CC2` (stereo not shown) [BH187, N-(5-chloro-2-fluorophenyl)-9-(1-cyclohexyl-1,2,3,6-tetrahydropyridin-4-yl)-1-methyl-6,7-dihydro-5H-benzo[c][1,2,3]triazolo[1,5-a]azepin-7-amine 2,2,2-trifluoroacetate], the Ki is 0.0288 µM in test [1] and 1.72 µM in test [3]. The IC50 in test [2] worked out at 1.3 µM; in test [4], 0.106 µM.
`Cc1nnn2c1-c1ccc(-c3ccnc4[nH]ccc34)cc1C(Nc1ccc(Cl)cc1)CC2` (stereo not shown) [RB31, N-(4-chlorophenyl)-1-methyl-9-(1H-pyrrolo[2,3-b]pyridin-4-yl)-6,7-dihydro-5H-benzo[c][1,2,3]triazolo[1,5-a]azepin-7-amine]: the Ki was 0.0247 µM in test [1] and 0.0336 µM in test [3]. The compound further registered an IC50 in test [2] of 0.676 µM.
For `Cc1nnn2c1-c1ccc(-c3cccc4[nH]cnc34)cc1C(Nc1ccc(Cl)cc1)CC2` (stereo not shown) [RB42, 9-(1H-benzo[d]imidazol-4-yl)-N-(4-chlorophenyl)-1-methyl-6,7-dihydro-5H-benzo[c][1,2,3]triazolo[1,5-a]azepin-7-amine] the same measures were 0.0257 µM, 0.053 µM and 0.324 µM.
On the same counts, the results for `Cc1nnn2c1-c1ccc(-c3cnn(C)c3)cc1C(N(C)c1ccc(Cl)cc1)CC2` (stereo not shown) [RB66, N-(4-chlorophenyl)-N,1-dimethyl-9-(1-methyl-1H-pyrazol-4-yl)-6,7-dihydro-5H-benzo[c][1,2,3]triazolo[1,5-a]azepin-7-amine] are 0.009 µM, 0.0629 µM and 0.0313 µM.
As for `Cc1nnn2c1-c1ccc(-c3cncc4[nH]ccc34)cc1C(Nc1ccc(Cl)cc1)CC2` (stereo not shown) [RB90, N-(4-chlorophenyl)-1-methyl-9-(1H-pyrrolo[2,3-c]pyridin-4-yl)-6,7-dihydro-5H-benzo[c][1,2,3]triazolo [1,5-a]azepin-7-amine], the Ki in test [1] is 0.0352 µM; in test [3] it was 0.104 µM. The compound further registered an IC50 in test [2] of 0.257 µM.
For `Cc1nnn2c1-c1ccc(C3=CCNCC3)cc1C(Nc1ccc(Cl)cc1)CC2` (stereo not shown) [RB99, N-(4-chlorophenyl)-1-methyl-9-(1,2,3,6-tetrahydropyridin-4-yl)-6,7-dihydro-5H-benzo[c][1,2,3]triazolo[1,5-a]azepin-7-amine hydrochloride] the same measures were 0.0194 µM, 0.422 µM and 0.215 µM.
